# In the supplement of paper PMC10627819:
# What was measured:
# Assay in all cases: Bliss interaction score (quartile over a dose matrix) (fitness difference); higher = more antagonism (negative = synergy)
# S. pneumoniae D39V = test system: S. pneumoniae D39V
# Method in brief: (§1)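 Combination data were used to infer fitness under each single drug. Fitness is the OD595 at entry into stationary phase divided by the robust mean of the plate's no-drug wells, with a cap of 1. The Bliss score is the observed minus the expected product fitness, summarised by quartiles over technical, biological and donor/recipient replicates.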
# S. aureus Newman = test system: S. aureus Newman
# Method in brief: as §1
# B. subtilis 168 = test system: B. subtilis 168
# Method in brief: as §1
# S. aureus DSM 20231 = test system: S. aureus DSM 20231
# Method in brief: as §1
# 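Note: first quartile when negative (synergy) and third quartile when positive (antagonism).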
Compound,Bliss interaction score (S. pneumoniae D39V),Bliss interaction score (S. aureus Newman),Bliss interaction score (B. subtilis 168),Bliss interaction score (S. aureus DSM 20231)
CN(C)[C@@H]1C(O)=C(C(N)=O)C(=O)[C@@]2(O)C(O)=C3C(=O)c4c(O)ccc(Cl)c4[C@@](C)(O)[C@H]3C[C@@H]12 [Clortetracycline] + CC(=O)O[C@H]1C[C@@]2(C)[C@@H](C[C@@H](O)[C@H]3[C@@]4(C)CC[C@@H](O)[C@@H](C)[C@@H]4CC[C@@]32C)/C1=C(\CCC=C(C)C)C(=O)O [Fusidic acid],-0.0508,0.0488,-0.11,0.026
CC(=O)Oc1ccccc1C(=O)O [Acetylsalicylicacid] + COc1ccc(C[C@H](N)C(=O)N[C@H]2[C@@H](O)[C@H](n3cnc4c(N(C)C)ncnc43)O[C@@H]2CO)cc1 [Puromycin],0.149,-0.0494,0.0812,0.0722
CC(=O)Oc1ccccc1C(=O)O [Acetylsalicylicacid] + Cn1nnc(-c2ccc(-c3ccc(N4C[C@H](CO)OC4=O)cc3F)cn2)n1 [Tedizolid],0.0802,0.0641,-0.184,-0.124
CC(=O)Oc1ccccc1C(=O)O [Acetylsalicylicacid] + C[C@@H](O)[C@H]1C(=O)N2C(C(=O)O)=C(SCCNC=N)C[C@H]12 [Imipenem],0.0958,0.0337,-0.34,0.0498
CC(=O)Oc1ccccc1C(=O)O [Acetylsalicylicacid] + C[C@H]1c2cccc(O)c2C(=O)C2=C(O)[C@]3(O)C(=O)C(C(N)=O)=C(O)[C@@H](N(C)C)[C@@H]3[C@@H](O)[C@@H]21 [Doxycycline],0.1,0.0416,-0.164,-0.0455
N#CC(C#N)=NNc1cccc(Cl)c1 [CCCP] + CC[C@H]1OC(=O)[C@H](C)[C@@H](O[C@H]2C[C@@](C)(OC)[C@@H](O)[C@H](C)O2)[C@H](C)[C@@H](O[C@@H]2O[C@H](C)C[C@H](N(C)C)[C@H]2O)[C@](C)(O)C[C@@H](C)C(=O)[C@H](C)[C@@H](O)[C@]1(C)O [Erythromycin],-0.0863,0.0472,-0.0587,0.023
N#CC(C#N)=NNc1cccc(Cl)c1 [CCCP] + O=C(O)[C@H]1/C(=C/CO)O[C@@H]2CC(=O)N21 [Clavulanic],0.0476,0.0274,0.0453,-0.315
C[C@H]1c2cccc(O)c2C(=O)C2=C(O)[C@]3(O)C(=O)C(C(N)=O)=C(O)[C@@H](N(C)C)[C@@H]3[C@@H](O)[C@@H]21 [Doxycycline] + CC(=O)O[C@H]1C[C@@]2(C)[C@@H](C[C@@H](O)[C@H]3[C@@]4(C)CC[C@@H](O)[C@@H](C)[C@@H]4CC[C@@]32C)/C1=C(\CCC=C(C)C)C(=O)O [Fusidic acid],-0.0559,0.0131,-0.049,-0.0196
N#CC(C#N)=NNc1cccc(Cl)c1 [CCCP] + CC1=C(C(=O)O)N2C(=O)[C@@H](NC(=O)[C@H](N)c3ccccc3)[C@H]2SC1 [Cephalexin],-0.0759,-0.0498,0.0431,0.0708
CC1(C)S[C@@H]2[C@H](NC(=O)Cc3ccccc3)C(=O)N2[C@H]1C(=O)O [PenicillinG] + CN[C@@H]1[C@H](O[C@H]2[C@H](O[C@H]3[C@H](O)[C@@H](O)[C@H](N=C(N)N)[C@@H](O)[C@@H]3N=C(N)N)O[C@@H](C)[C@]2(O)C=O)O[C@@H](CO)[C@H](O)[C@H]1O [Streptomycin],-0.119,-0.0403,0.0319,-0.0333
CC(=O)Oc1ccccc1C(=O)O [Acetylsalicylicacid] + CC(=O)O[C@H]1C[C@@]2(C)[C@@H](C[C@@H](O)[C@H]3[C@@]4(C)CC[C@@H](O)[C@@H](C)[C@@H]4CC[C@@]32C)/C1=C(\CCC=C(C)C)C(=O)O [Fusidic acid],0.0675,-0.0211,-0.0821,0.0354
CC1(C)S[C@@H]2[C@H](NC(=O)Cc3ccccc3)C(=O)N2[C@H]1C(=O)O [PenicillinG] + CN[C@H](CC(C)C)C(=O)N[C@H]1C(=O)N[C@@H](CC(N)=O)C(=O)N[C@H]2C(=O)N[C@H]3C(=O)N[C@H](C(=O)N[C@H](C(=O)O)c4cc(O)cc(O)c4-c4cc3ccc4O)[C@H](O)c3ccc(c(Cl)c3)Oc3cc2cc(c3O[C@@H]2O[C@H](CO)[C@@H](O)[C@H](O)[C@H]2O[C@H]2C[C@](C)(N)[C@H](O)[C@H](C)O2)Oc2ccc(cc2Cl)[C@H]1O [Vancomycin],-0.162,0.0603,-0.039,-0.0205
CC(=O)Oc1ccccc1C(=O)O [Acetylsalicylicacid] + CN[C@@H]1[C@H](O[C@H]2[C@H](O[C@H]3[C@H](O)[C@@H](O)[C@H](N=C(N)N)[C@@H](O)[C@@H]3N=C(N)N)O[C@@H](C)[C@]2(O)C=O)O[C@@H](CO)[C@H](O)[C@H]1O [Streptomycin],-0.0479,0.0762,0.222,-0.0889
CC(=O)Oc1ccccc1C(=O)O [Acetylsalicylicacid] + CO[C@H]1/C=C/O[C@@]2(C)Oc3c(C)c(O)c4c(O)c(c(/C=N/N5CCN(C)CC5)c(O)c4c3C2=O)NC(=O)/C(C)=C\C=C\[C@H](C)[C@H](O)[C@@H](C)[C@@H](O)[C@@H](C)[C@H](OC(C)=O)[C@@H]1C [Rifampicin],0.0476,0.036,0.131,0.0617
CC(=O)Oc1ccccc1C(=O)O [Acetylsalicylicacid] + CCN(CC)CCOC(=O)c1ccc(N)cc1 [Procaine],0.0662,-0.0687,0.0531,0.0998
CO/N=C(\C(=O)N[C@@H]1C(=O)N2C(C(=O)O)=C(COC(N)=O)CS[C@H]12)c1ccco1 [Cefuroxime] + CC(=O)O[C@H]1C[C@@]2(C)[C@@H](C[C@@H](O)[C@H]3[C@@]4(C)CC[C@@H](O)[C@@H](C)[C@@H]4CC[C@@]32C)/C1=C(\CCC=C(C)C)C(=O)O [Fusidic acid],0.0348,0.104,0.137,-0.281
CC(=O)Oc1ccccc1C(=O)O [Acetylsalicylicacid] + CCC[C@@H]1C[C@@H](C(=O)N[C@@H]([C@H]2O[C@H](SC)[C@H](O)[C@@H](O)[C@H]2O)[C@H](C)Cl)N(C)C1 [Clindamycin],-0.105,0.0829,0.0404,0.0574
CN(C)[C@@H]1C(O)=C(C(N)=O)C(=O)[C@@]2(O)C(O)=C3C(=O)c4c(O)ccc(Cl)c4[C@@](C)(O)[C@H]3C[C@@H]12 [Clortetracycline] + C[n+]1ccc(-c2cc[n+](C)cc2)cc1 [Paraquat],-0.026,-0.0418,0.0974,0.0363
CC(=O)Oc1ccccc1C(=O)O [Acetylsalicylicacid] + Cc1onc(-c2ccccc2)c1C(=O)N[C@@H]1C(=O)N2[C@@H]1SC(C)(C)[C@@H]2C(=O)O [Oxacillin],0.0623,0.0916,0.0506,0.113
CC(=O)Oc1ccccc1C(=O)O [Acetylsalicylicacid] + CN[C@H](CC(C)C)C(=O)N[C@H]1C(=O)N[C@@H](CC(N)=O)C(=O)N[C@H]2C(=O)N[C@H]3C(=O)N[C@H](C(=O)N[C@H](C(=O)O)c4cc(O)cc(O)c4-c4cc3ccc4O)[C@H](O)c3ccc(c(Cl)c3)Oc3cc2cc(c3O[C@@H]2O[C@H](CO)[C@@H](O)[C@H](O)[C@H]2O[C@H]2C[C@](C)(N)[C@H](O)[C@H](C)O2)Oc2ccc(cc2Cl)[C@H]1O [Vancomycin],0.114,0.0599,-0.0629,-0.0542
CN(C)[C@@H]1C(O)=C(C(N)=O)C(=O)[C@@]2(O)C(O)=C3C(=O)c4c(O)ccc(Cl)c4[C@@](C)(O)[C@H]3C[C@@H]12 [Clortetracycline] + C[C@H]1c2cccc(O)c2C(=O)C2=C(O)[C@]3(O)C(=O)C(C(N)=O)=C(O)[C@@H](N(C)C)[C@@H]3[C@@H](O)[C@@H]21 [Doxycycline],-0.0483,-0.0257,-0.0687,-0.0625
CN(C)[C@@H]1C(O)=C(C(N)=O)C(=O)[C@@]2(O)C(O)=C3C(=O)c4c(O)ccc(Cl)c4[C@@](C)(O)[C@H]3C[C@@H]12 [Clortetracycline] + COc1c(N2C[C@@H]3CCCN[C@@H]3C2)c(F)cc2c(=O)c(C(=O)O)cn(C3CC3)c12 [Moxifloxacin],0.0374,0.101,-0.0182,0.119
CC(=O)Oc1ccccc1C(=O)O [Acetylsalicylicacid] + CC[C@H]1OC(=O)[C@H](C)[C@@H](O[C@H]2C[C@@](C)(OC)[C@@H](O)[C@H](C)O2)[C@H](C)[C@@H](O[C@@H]2O[C@H](C)C[C@H](N(C)C)[C@H]2O)[C@](C)(O)C[C@@H](C)C(=O)[C@H](C)[C@@H](O)[C@]1(C)O [Erythromycin],0.0745,0.144,0.184,0.1
O=C(O)c1cn(C2CC2)c2cc(N3CCNCC3)c(F)cc2c1=O [Ciprofloxacin] + CC1(C)S[C@@H]2[C@H](NC(=O)Cc3ccccc3)C(=O)N2[C@H]1C(=O)O [PenicillinG],0.0662,-0.0565,0.0481,-0.0624
N#CC(C#N)=NNc1cccc(Cl)c1 [CCCP] + CC1=C\[C@@H](O)CC(=O)Cc2nc(co2)C(=O)N2CCC=C2C(=O)O[C@H](C(C)C)[C@H](C)/C=C/C(=O)NC\C=C\1 [Virginiamycin M1],0.0981,-0.0388,-0.0262,0.0407
COc1cccc2c1C(=O)c1c(O)c3c(c(O)c1C2=O)C[C@@](O)(C(=O)CO)C[C@@H]3O[C@H]1C[C@H](N)[C@H](O)[C@H](C)O1 [Doxorubicin] + Oc1cc(Cl)ccc1Oc1ccc(Cl)cc1Cl [Triclosan],-0.0416,-0.0426,-0.0317,-0.0295
CO/N=C(\C(=O)N[C@@H]1C(=O)N2C(C(=O)O)=C(COC(C)=O)CS[C@H]12)c1csc(N)n1 [Cefotaxime] + CO[C@@]12[C@H](COC(N)=O)C3=C(C(=O)C(C)=C(N)C3=O)N1C[C@@H]1N[C@@H]12 [MitomycinC],0.118,0.0256,-0.135,0.0387
CC(=O)Oc1ccccc1C(=O)O [Acetylsalicylicacid] + CN(C)c1cc(NC(=O)CNC(C)(C)C)c(O)c2c1C[C@H]1C[C@H]3[C@H](N(C)C)C(O)=C(C(N)=O)C(=O)[C@@]3(O)C(O)=C1C2=O [Tigecycline],-0.0515,-0.0593,-0.11,-0.088
CO/N=C(\C(=O)N[C@@H]1C(=O)N2C(C(=O)O)=C(COC(C)=O)CS[C@H]12)c1csc(N)n1 [Cefotaxime] + CN[C@H](CC(C)C)C(=O)N[C@H]1C(=O)N[C@@H](CC(N)=O)C(=O)N[C@H]2C(=O)N[C@H]3C(=O)N[C@H](C(=O)N[C@H](C(=O)O)c4cc(O)cc(O)c4-c4cc3ccc4O)[C@H](O[C@H]3C[C@](C)(N)[C@@H](O)[C@H](C)O3)c3ccc(c(Cl)c3)Oc3cc2cc(c3O[C@@H]2O[C@H](CO)[C@@H](O)[C@H](O)[C@H]2O[C@H]2C[C@](C)(NCc3ccc(-c4ccc(Cl)cc4)cc3)[C@@H](O)[C@H](C)O2)Oc2ccc(cc2Cl)[C@H]1O [Oritavancin],-0.106,0.0965,0.0516,0.0947
CC(=O)Oc1ccccc1C(=O)O [Acetylsalicylicacid] + CN[C@H](CC(C)C)C(=O)N[C@H]1C(=O)N[C@@H](CC(N)=O)C(=O)N[C@H]2C(=O)N[C@H]3C(=O)N[C@H](C(=O)N[C@H](C(=O)O)c4cc(O)cc(O)c4-c4cc3ccc4O)[C@H](O[C@H]3C[C@](C)(N)[C@@H](O)[C@H](C)O3)c3ccc(c(Cl)c3)Oc3cc2cc(c3O[C@@H]2O[C@H](CO)[C@@H](O)[C@H](O)[C@H]2O[C@H]2C[C@](C)(NCc3ccc(-c4ccc(Cl)cc4)cc3)[C@@H](O)[C@H](C)O2)Oc2ccc(cc2Cl)[C@H]1O [Oritavancin],0.071,0.086,-0.0215,0.0533
